Results taken from ChEMBL document CHEMBL1147321, “Terpenoids from the North Adriatic Sponge Spongia officinalis” (J Nat Prod, 1989).
Values after ≈ are worked out from the molar mass of the structure shown.

Assay: Toxicity against Artemia salina by lethality assay
Type: organism-based
Conditions: in vivo, read-out: LD50 (the source's name)

Row | Compound | LC50
1 | CC(=O)O[C@H]1C[C@H]2[C@]3(C)CCCC(C)(C)[C@H]3CC[C@]2(C)[C@H]2CC=C3CO[C@H](O)[C@H]3[C@]12C | 200 µg/mL (≈ 464 µM)
2 | C/C(=C/C(=O)/C=C(/C)CCCc1ccoc1)CCCc1ccoc1 | 0.45 µg/mL (≈ 1.38 µM)
3 | CC(=O)O[C@@H]1OCC2=CC[C@H]3[C@]4(C)CC[C@H]5C(C)(C)CCC[C@]5(C)[C@H]4C[C@H](OC(C)=O)[C@]3(C)[C@H]21 [DEOXOSCALARIN ACETATE] | 190 µg/mL
4 | C/C(=C\C(=O)/C=C(\C)CCCc1ccoc1)CCCc1ccoc1 | 1.6 µg/mL (≈ 4.9 µM)
5 | C/C(=C/C(=O)/C=C(\C)CCCc1ccoc1)CCCc1ccoc1 | 0.09 µg/mL (≈ 0.276 µM)
6 | CC(=O)O[C@H]1C[C@@H]2[C@@]3(C)CCCC(C)(C)[C@@H]3CC[C@@]2(C)[C@@H]2CCc3cocc3[C@@]12C | 180 µg/mL (≈ 436 µM)
7 | C/C(=C\C(=O)C/C(C)=C/CCc1ccoc1)CCCc1ccoc1 [FUROSPONGIN 2] | 0.12 µg/mL (≈ 0.368 µM)
